Experiment [1] has as its system collagen-induced blood-platelet aggregation. Nature of the experiment: Collagen-induced blood-platelet aggregation after oral treatment of rats. It counts as in vivo, Wistar rats. Particulars: Rattus norvegicus, 100 mg/kg oral, 3 hrs after treatment, collagen (bovine tendon extract), read-out: Percent inhibition of blood-platelet aggregation, Collagen. On the procedure: (§1) Blood is taken from the jugular vein of Wistar rats. From this citrated blood, and after centrifugation, a plasma containing 600,000±20,000 blood-platelets per mm 3 is reconstituted, which plasma is used in all aggregation determinations.
(§2) 0.4 ml plasma is placed in a siliconized tube provided with a magnet bar which is also siliconized. The tube is introduced into an aggregometer connected to an apparatus which records the optical density variations. When light transmission reaches a stable value, 0.5 ml of a solution containing 10 μM A.D.P. (adenosine diphosphate) is introduced into the tube.
The A.D.P. solution is substituted with a collagen solution (bovine tendon extract).
(§3) Different groups of 20 rats each are used. Each group is orally administered a test derivative, at a dosage of 100 mg/kg. The results obtained during both tests are reported in following Table I which indicates the percent inhibition of blood-platelet aggregation obtained with respect to the reference group, 3 hrs after treatment.

The test system of experiment [2] is ovalbumin-induced systemic edema. Nature of the experiment: Ovalbumin-induced systemic edema method. Particulars: rats, 100 mg/kg oral one hour before and with ovalbumin. The class given is in vivo. On the procedure: Rats are administered a simultaneous intraperitoneal injection of 1 ml ovalbumin and 0.5 ml of a 1% aqueous Evans Blue solution. The animals of the treated group are additionally orally administered 100 mg/kg of the test derivative, one hour prior to ovalbumin administration and then simultaneously with said ovalbumin administration. The intensity of the phenomenon thus induced is rated according to a scale from 1 to 5, according to the progress of the inflammatory syndrome. The determinations are effected after 2 hours and after 3 hours. Thus are determined the mean intensity of the edema and the percent decrease of the edema reaction.

In a further experiment the test system is mouse. Nature of the experiment: Antalgic action, mechanical stimulation method according to Haffner. It counts as in vivo. Particulars: 100 mg/kg oral. On the procedure: (a) Mechanical stimulation method according to Haffner (Deutsch. Wish., 1959, 55, 731-733). This method comprises placing a pressure forceps at the base of the tail of a mouse and recording the number of bites self-inflicted by the animal in its endeavour to remove the forceps. The decrease of the number of bites prior and subsequent to oral administration of the test compound at a dosage of 100 mg/kg provides a measure of the antalgic activity of the derivatives of this invention.

In experiment [3] the test system is carrageenin-induced edema. Kind of experiment: Localized carrageenin-induced edema method. Particulars: rats, 100 mg/kg oral one hour before, with, and 1 and 2.5 hours after carrageenin. The class given is in vivo. Here is the method:
0.1 ml of a 1% carrageenin solution is injected at time O in the metatarsal flexor muscles of the right hind limb of rats.
The animals of the treated group are additionally orally administered 100 mg/kg of the test derivative, respectively one hour prior to, and then simultaneously with the phlogogenic agent, and then one hour and 2.5 hours thereafter. The determinations effected with a ROCH micrometer at times 0, 1 hr, 2 hrs, 3 hrs and 5 hrs after carrageenin administration make it possible to determine the percent anti-inflammatory activity, as a function of time.
(In general: In the carrageenan paw model, swelling and tenderness develop within hours.)

Another experiment has as its system mice. Nature of the experiment: Antalgic action, acetic acid method according to Koster, Anderson & de Beer. The class given is in vivo. Particulars: 100 mg/kg oral, 30 minutes prior to i.p. acetic acid. From the text: (b) Acetic acid method, according to Koster, Anderson & de Beer (Fed. Proced., 18, 1959, 412, 1, 626)
Intraperitoneal injection of a dilute acetic acid solution induces, in mice, characteristic writhing movements which are repeated due to the effect of pain.

Experiment [4] has as its system A.D.P.-induced blood-platelet aggregation. Kind of experiment: A.D.P.-induced blood-platelet aggregation after oral treatment of rats. The class given is in vivo, Wistar rats. Particulars: Rattus norvegicus, 100 mg/kg oral, 3 hrs after treatment, 10 μM A.D.P. solution, read-out: Percent inhibition of blood-platelet aggregation, A.D.P. Here is the method: as §1, §2
Blood-platelet aggregation then induces an increase of light transmission, followed by a decrease subsequent to the disaggregation stage.
The maximal optical density variation thus determined characterizes the extent of the aggregation.
as §3

Experiment [5] concerns Red blood cells. Nature of the experiment: Anti-sludge in vitro, "preventive" treatment (protamine sulfate agglomeration of red blood cells). The class given is cell-based, rats. Particulars: for percent agglomerates formed by 5 RBC: controls 6 or 8; for percent agglomerates formed by 4 RBC: controls 9 or 8; for percent agglomerates formed by 3 RBC: controls 13 or 14; for percent agglomerates formed by 2 RBC: controls 17 or 16; for percent free red blood cells (size 1): controls 32 (n°3, 4, 6) or 30 (n°11, 12, 17). On the procedure:
(§4) Red blood cells of rats are washed three times and diluted to 1/250 concentration in physiological saline. In each of 5 tubes are placed 0.6 ml of this suspension and 0.2 ml physiological saline. Into each tube is then added, respectively, an amount of 0, 25, 50, 100 and 200 μg of the test derivative contained in 0.2 ml of solution. After incubation for one hour at 37° C., 0.2 ml of a solution containing 125 μg/ml protamine sulfate is added thereto, and the resulting material is further incubated for 0.5 hour at 37° C. The red blood cells of each tube are then examined with a Mallasez cell, and the percent free red blood cells (RBC) and the percent agglomerates formed by 2, 3, 4, 5 . . . RBC are noted.

Experiment [6] deals with Red blood cells. Kind of experiment: Anti-sludge in vitro, "curative" procedure (protamine sulfate agglomeration of red blood cells). It counts as cell-based, rats. Particulars: 25 μg. On the procedure:
as §4
The test was repeated according to a "curative" procedure. The red blood cells were first contacted with the protamine sulfate and, after incubation for 0.5 hour, 0.2 ml containing 25 μg of the test derivative were added thereto, after which the material was further incubated for one hour at 37° C.

SMILES strings stand for the structures.

What is called inhibition is the drop in the measured response relative to a control, in per cent. As to `CC(=O)N1CCc2sccc2C1=O` [Derivative n°5, 4-Oxo-5-acetyl-4,5,6,7-tetrahydro-thieno[3,2-c]pyridine], the inhibition at 100 mg/kg in experiment [1] turned out to be 92.6%. Further, in experiment [2], the “Percent decrease of the edema reaction After 2 hours” value was 38% and the “Percent decrease of the edema reaction After 3 hours” value came to 47%. In addition, in the experiment with mouse, the “mean percent antalgia after 30 min.” value came out at 66%, the “mean percent antalgia after 1 hr” value is on record as 60%, the “mean percent antalgia after 2 hrs” value came to 54% and the “mean percent antalgia after 3 hrs” value is on record as 48%. Besides, in experiment [3], the “Percent anti-inflammatory activity after 1 hour” value amounted to 39%, the “Percent anti-inflammatory activity after 2 hours” value is recorded as 51% and the “Percent anti-inflammatory activity After 3 hours” value is reported as 55%. The percent antalgia with mice is reported as 64%. Further, the inhibition at 100 mg/kg in experiment [4] turned out to be 63.2%.

As to `O=C1NCCc2sccc21` [Derivative n°7, 4-Oxo-4,5,6,7-tetrahydro-thieno[3,2-c]pyridine], the inhibition at 100 mg/kg in experiment [1] is 92.6%. Further, in experiment [2], the “Percent decrease of the edema reaction After 2 hours” value is 51% and the “Percent decrease of the edema reaction After 3 hours” value is recorded as 63%. Also, in the experiment on mouse, the “mean percent antalgia after 30 min.” value was 78%, the “mean percent antalgia after 1 hr” value is on record as 76%, the “mean percent antalgia after 2 hrs” value is 72% and the “mean percent antalgia after 3 hrs” value was 64%. Also, in experiment [3], the “Percent anti-inflammatory activity after 1 hour” value stood at 44%, the “Percent anti-inflammatory activity after 2 hours” value stood at 55% and the “Percent anti-inflammatory activity After 3 hours” value is listed as 63%. The same compound showed a percent antalgia in the experiment on mice of 75%. In experiment [4], the inhibition at 100 mg/kg turned out to be 62.3%.

For the compound `CC(=O)N1CCc2ccsc2C1=O` [Derivative n°11, 6-Acetyl-7-oxo-4,5,6,7-tetrahydro-thieno[2,3-c]-pyridine], the inhibition at 100 mg/kg in experiment [1] is 92.8%. In experiment [2], the “Percent decrease of the edema reaction After 2 hours” value came to 45% and the “Percent decrease of the edema reaction After 3 hours” value is reported as 55%. For the same compound, in the experiment on mouse, the “mean percent antalgia after 30 min.” value came to 65%, the “mean percent antalgia after 1 hr” value is 61%, the “mean percent antalgia after 2 hrs” value is listed as 57% and the “mean percent antalgia after 3 hrs” value is reported as 50%. In experiment [3], the “Percent anti-inflammatory activity after 1 hour” value was determined as 41%, the “Percent anti-inflammatory activity after 2 hours” value is listed as 50% and the “Percent anti-inflammatory activity After 3 hours” value was found to be 58%. The compound also had a percent antalgia in the experiment on mice of 71%. For the same compound, in the experiment with Red blood cells [5] (25 μg per tube), the “percent agglomerates formed by 5 RBC” value was 2%, the “percent agglomerates formed by 4 RBC” value amounted to 2%, the “percent agglomerates formed by 3 RBC” value is recorded as 14% and the “percent agglomerates formed by 2 RBC” value is reported as 22%. The “percent free red blood cells (size 1)” value in the experiment with Red blood cells [5] (25 μg per tube) was 60%. Further, in the experiment with Red blood cells [5] (50 μg per tube), the “percent agglomerates formed by 5 RBC” value turned out to be 1%, the “percent agglomerates formed by 4 RBC” value worked out at 2%, the “percent agglomerates formed by 3 RBC” value is reported as 10% and the “percent agglomerates formed by 2 RBC” value was 22%. In the experiment with Red blood cells [5] (50 μg per tube), the “percent free red blood cells (size 1)” value worked out at 65%. In the experiment with Red blood cells [5] (100 μg per tube), the “percent agglomerates formed by 4 RBC” value amounted to 1%, the “percent agglomerates formed by 3 RBC” value is listed as 5%, the “percent agglomerates formed by 2 RBC” value worked out at 13% and the “percent free red blood cells (size 1)” value stood at 81%. In the experiment with Red blood cells [5] (200 μg per tube), the “percent agglomerates formed by 4 RBC” value was 1%, the “percent agglomerates formed by 3 RBC” value worked out at 2%, the “percent agglomerates formed by 2 RBC” value was 14% and the “percent free red blood cells (size 1)” value was 83%. Further, the inhibition at 100 mg/kg in experiment [4] was 63%. In addition, the “percent aggregates, size of agglomerates 5” value with Red blood cells [6] (reference tests 8 or 9) was 1%. Also, the “percent aggregates, size of agglomerates 4” value in the experiment with Red blood cells [6] (reference tests 11) is reported as 2%. Besides, in the experiment on Red blood cells [6] (reference tests 15 or 16), the “percent aggregates, size of agglomerates 3” value came out at 4%. Moreover, the “percent aggregates, size of agglomerates 2” value in the experiment on Red blood cells [6] (reference tests 19) is 15%. For the same compound, the “percent aggregates, size of agglomerates 1” value in the experiment with Red blood cells [6] (reference tests 33 (n°3, 4, 6) or 30 (n°11, 12, 17)) is 78%.

Consider `COc1cc(COC(=O)C2Cc3sccc3C(=O)N2Cc2cc(OC)c(OC)c(OC)c2)cc(OC)c1OC` (centres unmarked) [Derivative n°15, 4-Oxo-6-(3,4,5-trimethoxy-benzyloxycarbonyl)-5-(3,4,5-trimethoxybenzyl)-4,5,6,7-tetrahydro-thieno[3,2-c]pyridine], for which the inhibition at 100 mg/kg in experiment [1] was 91.6%. In experiment [2], the “Percent decrease of the edema reaction After 2 hours” value is reported as 48% and the “Percent decrease of the edema reaction After 3 hours” value is 58%. Besides, in the experiment with mouse, the “mean percent antalgia after 30 min.” value was 73%, the “mean percent antalgia after 1 hr” value stood at 67%, the “mean percent antalgia after 2 hrs” value stood at 63% and the “mean percent antalgia after 3 hrs” value turned out to be 56%. In addition, in experiment [3], the “Percent anti-inflammatory activity after 1 hour” value turned out to be 40%, the “Percent anti-inflammatory activity after 2 hours” value amounted to 52% and the “Percent anti-inflammatory activity After 3 hours” value worked out at 57%. Also, the percent antalgia in the experiment with mice is reported as 69%. Also, in experiment [4], the inhibition at 100 mg/kg amounted to 61.8%.

For the origin of these results see patent publication US4193997A, “Thieno[2,3-c] and [3,2-c]pyridines, process for their preparation and therapeutic applications thereof” (Parcor, priority 1977, dated 1980).
